According to patent publication US7385039B2, “Methods and compositions for regulating imidazoline receptors” (priority 1998, dated 2008):
Like-named read-outs stand apart in the source and are kept apart here.

How the values were obtained:
α2-Adrenergic Sites = experiment: [125I]p-iodoclonidine competition binding to bovine RVLM membranes, α2-adrenergic sites; settings: for Ki: read-out: Ki, α2-Adrenergic Sites (low affinity sites)
Text: Whole bovine brains and adrenal glands were obtained from a local slaughterhouse. Brains were immediately placed on a chilled glass plate, washed with ice-cold Krebs'-Henseleit buffer, and dissected. The rostral medulla was isolated by transecting the brainstem rostrally at the posterior margin of the trapezoid body and caudally 1 cm caudal to the obex. The pia-arachnoid was removed, and the lateral medulla was isolated by a sagittal section through the lateral margin of the pyramids, and then bisected. The ventral half was defined as the ventrolateral medulla (VLM). Brain samples were transported on ice to the laboratory and processed immediately.
Fresh bovine VLM was homogenized by using a polytron (Tekmar Tissuemizer, setting 80 for 2×15 sec) in 20 volumes of ice-cold Hepes-buffered isotonic sucrose (pH brought to 7.4 with Tris base) containing the protease inhibitors (1,10)-phenanthroline (100 μM) and phenylmethylsulfonyl fluoride (50 μM) in order to inhibit degradation of receptor protein. Bovine adrenomedullary cells were homogenized in 15 ml Hepes-buffered isotonic sucrose by 10 strokes in a glass-glass hand-held homogenizer. All three homogenates were centrifuged at 1000×g for 5 min at 4° C. to remove nuclei and debris. The pellets (P1) were resuspended in 20 ml of homogenization buffer, and centrifuged again at 1000×g for 5 min. The combined supernatants were centrifuged at 48,000 g for 18 min at 4° C., and the resulting P2 pellet was resuspended in 10 to 25 volumes of 50 mM Tris-HCl buffer (pH 7.7) containing 5 mM EDTA. After recentrifugation at 48,000 g for 18 min, the resulting membrane pellet was resuspended in Tris-HCl containing 25 mM NaCl, preincubated for 30 min at 25° C., chilled on ice, centrifuged again, resuspended a final time in Tris-HCl alone, centrifuged, flash-frozen, and stored at −70° C. for up to three months.
Radioligand binding assays with [^3H]clonidine or [^125I]p-iodoclonidine for determination of specific membrane binding to VLM and renal medulla imidazoline sites and α2-adrenergic receptors were performed by a modification of methods previously described (Ernsberger P. et al., 1997, J. Hypertension 1997, 15:S9-S23). Membranes were slowly thawed and resuspended in Tris-Hepes buffer (5.0 mM; pH 7.7 at 25° C., containing 0.5 mM EDTA, 0.5 mM EGTA, and 0.5 mM MgCl2) at a concentration of 1 mg protein/ml for the VLM, 4 mg protein/ml for the renal medulla, and 0.2 mg protein/ml for adrenomedullary cells. Assays were conducted in a total volume of 250 μl in polypropylene 96-well plates (Beckman Macrowell), and each well contained 125 μl membrane suspension, 25 μl radioligand, and 100 μl drug or vehicle. Incubations were initiated by the addition of membrane and were carried out for 30 min at 22° C. Nonspecific binding was defined in the presence of 10 μM BDF-6143, an imidazoline adrenergic agent. Specific α2-adrenergic binding was defined by inhibition with (−)epinephrine (0.1 mM). In experiments using catecholamines, all samples contained ascorbic acid in a final concentration of 0.001%. Incubations were terminated by vacuum filtration using a cell harvester (Brandel) equipped with Teflon tubing to reduce absorption of the radioligand over glass fiber filters (Schleicher & Schuell #34) which were preincubated for 4 h at 4° C. in 0.03% polyethylimine to reduce nonspecific binding to the filter. The filters were washed four times with 5 ml ice-cold Tris-HCl, placed in scintillation vials, covered with 4 ml scintillation cocktail (BioSafe II, Research Products International), and counted at 50% efficiency (Beckman LS5801). Protein was assayed by the bicinchoninic acid method.
Data were obtained as dpm and transferred to the Equilibrium Binding Data Analysis (EBDA) program for initial processing; 4 to 10 experiments were analyzed simultaneously by using the LIGAND program for nonlinear curve-fitting. Protein assay data were also analyzed by nonlinear curve-fitting.
Competition binding assays. […]

SH rats = experiment: Mean arterial pressure and heart rate after microinjection into the RVLM of rats; assay type: in vivo, rat; settings: SH rats
Procedure: Effects of ribotide on mean arterial pressure (MAP) and heart rate (HR). Bilateral I-4-AA-RP microinjections (60 nl, 100 nmol) into the RVLM of SH rats were performed (Emsberger, P. & Haxhiu, M. A. (1997) Am. J. Physiol. 273, R1572-R1579) after the sympatho-excitatory area was confirmed by showing glutamate-induced MAP elevation ≧30 mm Hg. MAP and HR values were measured every 5 min. After each experiment, the injection site was marked by infusion of rhodamine microspheres. Changes were assessed relative to baseline values by two-way repeated measures ANOVA and Dunnett's test. A second group of SH rats (injection controls) received vehicle injections to control for injection effects and for volume artifacts due to multiple injections. Vehicle contained 2 nmol rilmenidine, a sub-threshold dose, far below that known to cause any detectable effect (Gomez, R. E., Emsberger, P., Feinland, G. & Reis, D. J. (1991) Eur. J. Pharmacol. 195, 181-191). In a follow-up study, SH rats (N=6) were given I-4-AA-RP then moxonidine. When used alone, it reduces MAP to normotensive levels (Emsberger, P., Elliott, H. L., Weimann, H.-J., Raap, A., Haxhiu, M. A., Hofferber, E., Low-Kroger, A., Reid, J. L. & Mest, H. J. (1993) Cardiovas. Drug Rev. 11, 411-431).

[1] = With cimetidine (I-sites masked)

SMILES: O=C(O)Cc1cn(C2OC(COP(=O)(O)O)C(O)C2O)cn1 [IAA-RP, 1-(β-D-ribofuranosyl)-imidazole-4-acetic acid 5′ phosphate]
- Percent Sites, α2-Adrenergic Sites (α2-Adrenergic Sites; Control (no masking ligand)): 29 ± 5%
- Ki (α2-Adrenergic Sites; Control (no masking ligand)): 57 ± 33 µM
- Percent Sites, α2-Adrenergic Sites (α2-Adrenergic Sites; [1]): 100 ± 10%
- Ki (α2-Adrenergic Sites; [1]): 210 ± 32 µM
- Percent Sites, α2-Adrenergic Sites (α2-Adrenergic Sites; With epinephrine (α2Rs masked)): 14 ± 4%
- Ki (α2-Adrenergic Sites; With epinephrine (α2Rs masked)): 60 ± 48 µM
- fold lower affinity of remaining (low affinity) sites versus high affinity component (α2-Adrenergic Sites; no masking ligands): > 300 fold
- rise of MAP over baseline (SH rats; 100 nmol bilateral microinjection into RVLM): ~25 mm Hg
- change of heart rate (HR) (SH rats; 100 nmol into RVLM): no significant changes
- MAP elevation above baseline (SH rats; after six 100 nmol doses): 20.4±5.6%
